Assay results as given in US12194051B2, “5-azaindazole derivatives as adenosine receptor antagonists” (MERCK PATENT GMBH, priority 2018, dated 2025).

Key:
human A2A receptors = biological target: T1, human A2A receptors (Homo sapiens, UniProt P29274); assay: Inhibition of human A2A receptor in recombinant HEK293 cells, cAMP quantification (HTRF); format: cell-based; settings: read-out: A2A (Category)
T1 construct: expressed in transfected cells; host or cells: HEK293
Experimental: (§1) The functional activities of human A2A and A2B receptors were determined by quantification of cAMP, being the second messenger for adenosine receptors.
(§2) After a 15 min incubation, HTRF reagents (cAMP dynamic 2, Cis Bio) were added and the cellular cAMP levels were determined using the ENVISION (Perkin Elmer) plate reader.

human A2B receptors = biological target: T2, human A2B receptors (Homo sapiens, UniProt P29275); assay: Inhibition of human A2B receptor in recombinant HEK293 cells, cAMP quantification (HTRF); format: cell-based; settings: read-out: A2B (Category)
T2 construct: expressed in transfected cells; host or cells: HEK293
T2 sequence (P29275 1-332): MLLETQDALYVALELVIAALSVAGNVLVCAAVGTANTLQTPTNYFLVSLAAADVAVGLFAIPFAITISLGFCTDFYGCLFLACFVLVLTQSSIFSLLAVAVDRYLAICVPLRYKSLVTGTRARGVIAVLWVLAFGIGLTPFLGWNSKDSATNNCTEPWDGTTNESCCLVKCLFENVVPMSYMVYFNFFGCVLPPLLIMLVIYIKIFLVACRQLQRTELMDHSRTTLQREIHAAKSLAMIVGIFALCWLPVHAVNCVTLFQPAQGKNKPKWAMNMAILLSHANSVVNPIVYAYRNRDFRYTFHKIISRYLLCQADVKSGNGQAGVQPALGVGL
Experimental: as §1, §2

T1 sequence (P29274 whole entry): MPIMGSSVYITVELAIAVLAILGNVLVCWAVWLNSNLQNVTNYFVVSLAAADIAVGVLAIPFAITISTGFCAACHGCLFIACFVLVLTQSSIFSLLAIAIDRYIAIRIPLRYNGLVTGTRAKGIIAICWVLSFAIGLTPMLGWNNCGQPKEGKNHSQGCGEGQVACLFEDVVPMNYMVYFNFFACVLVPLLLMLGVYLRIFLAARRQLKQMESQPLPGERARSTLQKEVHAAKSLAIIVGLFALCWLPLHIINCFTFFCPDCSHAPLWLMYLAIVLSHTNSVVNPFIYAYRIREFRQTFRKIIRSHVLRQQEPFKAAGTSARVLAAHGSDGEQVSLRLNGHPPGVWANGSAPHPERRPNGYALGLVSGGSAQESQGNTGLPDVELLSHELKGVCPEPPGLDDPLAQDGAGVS

IC50 (human A2A receptors) [nM] | IC50 (human A2B receptors) [nM] | Structure (SMILES)
< 100 | < 1000 | O=C(c1cc2c(cn1)c(Nc1ccc(F)cc1)nn2CC(F)(F)F)N1CCOCC(O)C1 (centres unmarked) [Compound 33, [3-(4-fluoroanilino)-1-(2,2,2-trifluoroethyl)pyrazolo[4,3-c]pyridin-6-yl]-(6-hydroxy-1,4-oxazepan-4-yl)methanone]
< 100 | < 1000 | CC1(O)CCN(C(=O)c2cc3c(cn2)c(Nc2ccc(F)cc2)nn3CC(F)(F)F)CC1 [Compound 34, [3-(4-fluoroanilino)-1-(2,2,2-trifluoroethyl)pyrazolo[4,3-c]pyridin-6-yl]-(4-hydroxy-4-methyl-1-piperidyl)methanone]
< 100 | < 1000 | CC1(O)CCN(C(=O)c2cc3c(cn2)c(Nc2cccc(F)c2)nn3CC(F)(F)F)CC1 [Compound 35, [3-(3-fluoroanilino)-1-(2,2,2-trifluoroethyl)pyrazolo[4,3-c]pyridin-6-yl]-(4-hydroxy-4-methyl-1-piperidyl)methanone]
< 100 | < 100 | O=C(c1cc2c(cn1)c(Nc1ccc(Cl)cc1)nn2CC(F)(F)F)N1CCCOCC1 [Compound 38, [3-(4-chloroanilino)-1-(2,2,2-trifluoroethyl)pyrazolo[4,3-c]pyridin-6-yl]-(1,4-oxazepan-4-yl)methanone]
< 100 | < 100 | [2H]C1([2H])COCCN(C(=O)c2cc3c(cn2)c(Nc2cccc(F)c2)nn3CC(F)(F)F)C1 [Compound 40, (6,6-dideuterio-1,4-oxazepan-4-yl)-[3-(3-fluoroanilino)-1-(2,2,2-trifluoroethyl)pyrazolo[4,3-c]pyridin-6-yl]methanone]
< 100 | < 1000 | [2H]C1([2H])COCCN(C(=O)c2cc3c(cn2)c(Nc2ccc(F)cc2)nn3CC(F)(F)F)C1 [Compound 41, (6,6-dideuterio-1,4-oxazepan-4-yl)-[3-(4-fluoroanilino)-1-(2,2,2-trifluoroethyl)pyrazolo[4,3-c]pyridin-6-yl]methanone]
< 100 | < 100 | O=C(c1cc2c(cn1)c(Nc1ccccn1)nn2CC(F)(F)F)N1CCCOCC1 [Compound 42, 1,4-oxazepan-4-yl-[3-(2-pyridylamino)-1-(2,2,2-trifluoroethyl)pyrazolo[4,3-c]pyridin-6-yl]methanone]
< 100 | < 100 | O=C(c1cc2c(cn1)c(Nc1ccc(F)cn1)nn2CC(F)(F)F)N1CCCOCC1 [Compound 44, [3-[(5-fluoro-2-pyridyl)amino]-1-(2,2,2-trifluoroethyl)pyrazolo[4,3-c]pyridin-6-yl]-(1,4-oxazepan-4-yl)methanone]
< 100 | < 100 | O=C(c1cc2c(cn1)c(Nc1cc(F)ccn1)nn2CC(F)(F)F)N1CCCOCC1 [Compound 46, [3-[(4-fluoro-2-pyridyl)amino]-1-(2,2,2-trifluoroethyl)pyrazolo[4,3-c]pyridin-6-yl]-(1,4-oxazepan-4-yl)methanone]
< 100 | < 100 | O=C(c1cc2c(cn1)c(Nc1ccccn1)nn2CC(F)(F)F)N1CC2CCC(C1)O2 [Compound 47, 8-oxa-3-azabicyclo[3.2.1]octan-3-yl-[3-(2-pyridylamino)-1-(2,2,2-trifluoroethyl)pyrazolo[4,3-c]pyridin-6-yl]methanone]
< 100 | < 100 | O=C(c1cc2c(cn1)c(Nc1ccc(Cl)cn1)nn2CC(F)(F)F)N1CCCOCC1 [Compound 48, [3-[(5-chloro-2-pyridyl)amino]-1-(2,2,2-trifluoroethyl)pyrazolo[4,3-c]pyridin-6-yl]-(1,4-oxazepan-4-yl)methanone]
< 100 | < 100 | O=C(c1cc2c(cn1)c(Nc1cccc(F)n1)nn2CC(F)(F)F)N1CCCOCC1 [Compound 49, [3-[(6-fluoro-2-pyridyl)amino]-1-(2,2,2-trifluoroethyl)pyrazolo[4,3-c]pyridin-6-yl]-(1,4-oxazepan-4-yl)methanone]
< 100 | < 1000 | O=C(c1cc2c(cn1)c(Nc1cccc(Cl)n1)nn2CC(F)(F)F)N1CCCOCC1 [Compound 51, [3-[(6-chloro-2-pyridyl)amino]-1-(2,2,2-trifluoroethyl)pyrazolo[4,3-c]pyridin-6-yl]-(1,4-oxazepan-4-yl)methanone]
< 100 | < 100 | O=C(c1cc2c(cn1)c(Nc1ccccn1)nn2CC(F)(F)F)N1CCOCC(O)C1 (centres unmarked) [Compound 52, (6-hydroxy-1,4-oxazepan-4-yl)-[3-(2-pyridylamino)-1-(2,2,2-trifluoroethyl)pyrazolo[4,3-c]pyridin-6-yl]methanone]
< 100 | < 100 | CC1(O)CCN(C(=O)c2cc3c(cn2)c(Nc2ccccn2)nn3CC(F)(F)F)CC1 [Compound 53, (4-hydroxy-4-methyl-1-piperidyl)-[3-(2-pyridylamino)-1-(2,2,2-trifluoroethyl)pyrazolo[4,3-c]pyridin-6-yl]methanone]
< 100 | < 100 | [2H]C1([2H])COCCN(C(=O)c2cc3c(cn2)c(Nc2ccccn2)nn3CC(F)(F)F)C1 [Compound 59, (6,6-dideuterio-1,4-oxazepan-4-yl)-[3-(2-pyridylamino)-1-(2,2,2-trifluoroethyl)pyrazolo[4,3-c]pyridin-6-yl]methanone]
< 100 | < 100 | [2H]C1([2H])COCCN(C(=O)c2cc3c(cn2)c(Nc2cc(F)ccn2)nn3CC(F)(F)F)C1 [Compound 60, (6,6-dideuterio-1,4-oxazepan-4-yl)-[3-[(4-fluoro-2-pyridyl)amino]-1-(2,2,2-trifluoroethyl)pyrazolo[4,3-c]pyridin-6-yl]methanone]
< 100 | < 100 | O=C(c1cc2c(cn1)c(Nc1cnccn1)nn2CC(F)(F)F)N1CCCOCC1 [Compound 61, 1,4-oxazepan-4-yl-[3-(pyrazin-2-ylamino)-1-(2,2,2-trifluoroethyl)pyrazolo[4,3-c]pyridin-6-yl]methanone]
< 100 | < 1000 | O=C(c1cc2c(cn1)c(Nc1cc(C(F)(F)F)ccn1)nn2CC(F)(F)F)N1CCCOCC1 [Compound 62, 1,4-oxazepan-4-yl-[1-(2,2,2-trifluoroethyl)-3-[[4-(trifluoromethyl)-2-pyridyl]amino]pyrazolo[4,3-c]pyridin-6-yl]methanone]
< 100 | < 100 | COc1ccnc(Nc2nn(CC(F)(F)F)c3cc(C(=O)N4CCCOCC4)ncc23)c1 [Compound 63, [3-[(4-methoxy-2-pyridyl)amino]-1-(2,2,2-trifluoroethyl)pyrazolo[4,3-c]pyridin-6-yl]-(1,4-oxazepan-4-yl)methanone]
< 100 | < 100 | O=C(c1cc2c(cn1)c(Nc1cc(Cl)ccn1)nn2CC(F)(F)F)N1CCCOCC1 [Compound 64, [3-[(4-chloro-2-pyridyl)amino]-1-(2,2,2-trifluoroethyl)pyrazolo[4,3-c]pyridin-6-yl]-(1,4-oxazepan-4-yl)methanone]
< 100 | < 1000 | O=C(c1cc2c(cn1)c(Nc1ccc(F)c(Cl)n1)nn2CC(F)(F)F)N1CCCOCC1 [Compound 65, [3-[(6-chloro-5-fluoro-2-pyridyl)amino]-1-(2,2,2-trifluoroethyl)pyrazolo[4,3-c]pyridin-6-yl]-(1,4-oxazepan-4-yl)methanone]
< 100 | < 1000 | O=C(c1cc2c(cn1)c(Nc1cc(Cl)c(F)cn1)nn2CC(F)(F)F)N1CCCOCC1 [Compound 66, [3-[(4-chloro-5-fluoro-2-pyridyl)amino]-1-(2,2,2-trifluoroethyl)pyrazolo[4,3-c]pyridin-6-yl]-(1,4-oxazepan-4-yl)methanone]
< 100 | < 1000 | Cc1ccnc(Nc2nn(CC(F)(F)F)c3cc(C(=O)N4CCCOCC4)ncc23)c1 [Compound 68, [3-[(4-methyl-2-pyridyl)amino]-1-(2,2,2-trifluoroethyl)pyrazolo[4,3-c]pyridin-6-yl]-(1,4-oxazepan-4-yl)methanone]

Structure (SMILES) | IC50 (human A2A receptors) [nM] | IC50 (human A2B receptors) [nM]
CS(=O)(=O)Cn1nc(Nc2ccc(F)cc2)c2cnc(C(=O)N3[C@@H]4CC[C@H]3C[C@@H](O)C4)cc21 [Compound 30, [3-(4-fluoroanilino)-1-(methylsulfonylmethyl)pyrazolo[4,3-c]pyridin-6-yl]-(3-endo-hydroxy-8-azabicyclo[3.2.1]octan-8-yl)methanone] | < 100 | < 1000
CS(=O)(=O)Cn1nc(Nc2cccc(F)c2)c2cnc(C(=O)N3[C@@H]4CC[C@H]3C[C@@H](O)C4)cc21 [Compound 31, [3-(3-fluoroanilino)-1-(methylsulfonylmethyl)pyrazolo[4,3-c]pyridin-6-yl]-(3-endo-hydroxy-8-azabicyclo[3.2.1]octan-8-yl)methanone] | < 100 | < 100
O=C(c1cc2c(cn1)c(Nc1cccc(F)c1)nn2CC(F)(F)F)N1CCOCC(O)C1 (centres unmarked) [Compound 32, [3-(3-fluoroanilino)-1-(2,2,2-trifluoroethyl)pyrazolo[4,3-c]pyridin-6-yl]-(6-hydroxy-1,4-oxazepan-4-yl)methanone] | < 100 | < 1000
O=C(c1cc2c(cn1)c(Nc1cccc(Cl)c1)nn2CC(F)(F)F)N1CCCOCC1 [Compound 37, [3-(3-chloroanilino)-1-(2,2,2-trifluoroethyl)pyrazolo[4,3-c]pyridin-6-yl]-(1,4-oxazepan-4-yl)methanone] | < 100 | < 1000
